Molecules are shown by their SMILES.

Data on 57 compounds can be found in the METLIN SMRT retention time set (Domingo-Almenara et al. 2019).

The nature of the data set: gradient 5% acetonitrile 3 min, to 50% in 2 min, to 85% in 15 min, held 3 min, 100 µL/min. The note with it: column: Zorbax Extend-C18 2.1 x 50 mm; eluents: water / acetonitrile, 0.1% formic acid. In short, it runs like this:
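The mobile phases were water and acetonitrile, each with 0.1% formic acid, pumped at 100 μL/min through a Zorbax Extend-C18 column (2.1 × 50 mm, 1.8 μm). Pure standards were injected as mixtures of ~100 molecules and detected by a quadrupole time-of-flight mass spectrometer in positive and negative ionization mode. Retention time came from computationally picked adduct peaks, each inspected by hand.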
`COC(=O)c1cccc(NC(=O)CCc2cccc3[nH]ccc23)c1` registered an RP-LC retention time of 847 s.

As for `CCc1ccccc1NC(=O)COc1cc(C)nc(N2CCN(c3ccccc3)CC2)n1`, the RP-LC retention time was found to be 935 s.

Take `CCn1c(=O)sc2cc(S(=O)(=O)N3CCC(C(=O)Nc4ccccc4OC)CC3)ccc21`: the RP-LC retention time is 917 s.

As to `Cc1ccc(-c2nocc2CCC(=O)O)cc1`, the RP-LC retention time is 748 s.

For `COc1ccc(NC(=O)C2CCN(S(=O)(=O)c3ccc4c(c3)NC(=O)C(C)O4)CC2)cc1` (configuration not stated), the RP-LC retention time was 783 s.

Regarding `Cc1ccc2oc(N3CCN(C(=O)c4ccc(-c5noc(C(C)C)n5)cc4)CC3)nc2n1`, the RP-LC retention time stood at 685 s.

Consider `Cc1ccc(C)c(NC(=O)C2CCCN(c3nc4c(s3)c(C)nn4-c3cccc(F)c3)C2)c1` (configuration not stated), for which the RP-LC retention time amounted to 1280 s.

`C=CCN(Cc1nc(-c2cccc(C)c2)no1)C(=O)Nc1cccc(C)c1` had an RP-LC retention time of 1090 s.

On to `O=C1CSCc2nc3ccccc3n21`, for which the RP-LC retention time is 634 s.

In the case of `COc1ccc(C(=O)N2CCCC2c2nc(-c3ccc(OC)c(OC)c3)no2)cc1F` (configuration not stated), the RP-LC retention time stood at 876 s.

On to `CC(C)(C)c1ccc(C(=O)NC2CCN(c3cc(-c4ccccc4)[nH]n3)C2)cc1` (configuration not stated), for which the RP-LC retention time turned out to be 872 s.

The compound `CCOC(=O)c1nc(NCc2cccc(OC)c2)c2ccccc2n1` gave an RP-LC retention time of 754 s.

`Cc1cc(C)c(-c2noc(C)n2)c(NC(=O)c2ccc(C)c(F)c2)n1`: the RP-LC retention time was 781 s.

For the compound `COc1ccc(CNC(=O)C2CCN(Cc3cn(C)c4ccc(OC)cc34)CC2)c(OC)c1`, the RP-LC retention time turned out to be 672 s.

Compound `Cc1noc(-c2ccc(OC3CN(C(=O)c4cccn4C)C3)cc2)n1` displayed an RP-LC retention time of 898 s.

In the case of `COCCNC(=O)C1CCN(C(=O)c2cc3ccsc3n2Cc2cccc(OC)c2)CC1`, the RP-LC retention time turned out to be 770 s.

`O=C(Nc1cccc(-c2nnc3n2CCCC3)c1)c1ccc2ccccc2n1` yielded an RP-LC retention time of 779 s.

The compound `COc1cc(OC2CCN(C)CC2)ccc1Nc1ncc2c(n1)n(C1CCCC1)c(=O)n2C` had an RP-LC retention time of 654 s.

In turn, `Cc1sc(-c2cc(C(F)(F)F)on2)cc1S(=O)(=O)Nc1cccc(Cl)c1C` had an RP-LC retention time of 1240 s.

Consider `Cc1ccc(NC(=O)N2CCC(OC3CCN(S(C)(=O)=O)CC3)CC2)cc1C`, for which the RP-LC retention time turned out to be 803 s.

In turn, `CC(C)CN1CCN(S(=O)(=O)c2cc(-c3nnc(C4CC4)o3)co2)CC1` gave an RP-LC retention time of 622 s.

In the case of `COc1ccc(C(CC(=O)NCCN2CCCC2)N2Cc3ccccc3C2=O)cc1OC` (configuration not stated), the RP-LC retention time came to 609 s.

As for `C[C@@H]1O[C@@H](O[C@H]2C(Oc3cc(O)c4c(=O)c(O)c(-c5ccc(O)cc5)oc4c3)O[C@H](CO)[C@@H](O)[C@@H]2O)[C@H](O)[C@H](O)[C@H]1O` (some centres not stated), the RP-LC retention time came to 677 s.

The compound `Cc1nc(-c2cc(S(=O)(=O)NCc3ccc(OC(C)C)cc3)c(C)s2)sc1C` gave an RP-LC retention time of 1150 s.

As to `CNC(=O)[C@H]1O[C@@H](n2cnc3c(NCc4cccc(I)c4)ncnc32)C(O)[C@H]1O` (some centres not stated), the RP-LC retention time was determined as 730 s.

`COc1ccc(-c2noc(C3CC(=O)N(c4ccc(OC)c(OC)c4)C3)n2)c(OC)c1` (configuration not stated) came in with an RP-LC retention time of 786 s.

Compound `CCC(C)NC(=O)c1c(O)c2cccnc2n(-c2ccc(OC)cc2)c1=O` (configuration not stated) returned an RP-LC retention time of 1140 s.

With `CCN(CCNC(=O)c1cc(=O)n(C)c2c1c(=O)n(C)c(=O)n2C)Cc1ccccc1`, the RP-LC retention time is 646 s.

`Cc1ccc(N2CC(c3nc(-c4ccc5oc(C)nc5c4)no3)CC2=O)cc1` (configuration not stated) gave an RP-LC retention time of 903 s.

In the case of `Cc1ccc(-c2cn3ccn(-c4ccc(Cl)cc4)c(=O)c3n2)cc1`, the RP-LC retention time is 905 s.

Compound `CN(C)S(=O)(=O)c1ccc(C(=O)N2CCC3(CC2)OCCS3)cc1` yielded an RP-LC retention time of 724 s.

`Cc1ccc(CCNC(=O)c2ccc3c(c2)NC(=O)C2CCCCN32)cc1` (configuration not stated) displayed an RP-LC retention time of 862 s.

`O=C(Cn1nc(N2CCOCC2)c2ccccc2c1=O)Nc1ccc(C(F)(F)F)cc1`: the RP-LC retention time stood at 898 s.

With `CC1=C(c2ccc(C)c(C)c2)S(=O)(=O)N=C1N1CCCN(C(=O)c2ccco2)CC1`, the RP-LC retention time is 836 s.

Regarding `COc1ccc(NC(=O)CSc2cc(N3CCN(c4ccccc4OC)CC3)ncn2)cc1OC`, the RP-LC retention time was determined as 814 s.

Consider `O=C(NC1CCCCC1)c1nc(Nc2ccc(F)cc2)c2ccccc2n1`, for which the RP-LC retention time amounted to 883 s.

`Cc1ncoc1C(=O)N1CC(F)(F)C[C@H]1c1nc(C2CC2)no1` gave an RP-LC retention time of 768 s.

Consider `O=C(O)CCNS(=O)(=O)c1ccc(Cl)c(-c2nnc(-c3ccccc3)o2)c1`, for which the RP-LC retention time worked out at 781 s.

The compound `Cc1ccc(-c2noc(-c3cccc(S(=O)(=O)N4CCN(C)CC4)c3)n2)cc1` registered an RP-LC retention time of 735 s.

In the case of `Cc1cccc(NC(=O)Cn2nc(N3CCC(C)CC3)c3ccccc3c2=O)c1`, the RP-LC retention time turned out to be 1160 s.

`Cc1ccc(-c2csc(NC(=O)Cn3c(=O)sc4ccccc43)n2)cc1` returned an RP-LC retention time of 1010 s.

The compound `Cc1nn(-c2ccccc2)c(C)c1S(=O)(=O)N1CCC(C(=O)N2CCc3ccccc32)CC1` came in with an RP-LC retention time of 1020 s.

Consider `CC1(C(=O)Nc2ccccc2)Oc2cccnc2NC1=O` (configuration not stated), for which the RP-LC retention time came out at 655 s.

`O=C(NCCc1csc(-c2cccs2)n1)C1CCN(C(=O)CCC2CCCC2)CC1` showed an RP-LC retention time of 901 s.

Consider `COc1ccccc1-c1nc2nccc(-c3ccsc3)n2n1`, for which the RP-LC retention time stood at 872 s.

Compound `O=c1ccc(-c2nc(-c3cccc(Br)c3)no2)cn1Cc1ccncc1` returned an RP-LC retention time of 746 s.

`COc1cc2c(cc1OC)C(COc1ccc(F)cc1)N(C(=O)C(C)(C)C)CC2` (configuration not stated) had an RP-LC retention time of 998 s.

The compound `Cc1ccccc1S(=O)(=O)N1CCC(OCCOCc2ccccc2)CC1` showed an RP-LC retention time of 1130 s.

Consider `Cc1ccc(C(=O)NC2CCN(c3cc(-c4ccc(Cl)cc4)[nH]n3)C2)cc1C` (configuration not stated), for which the RP-LC retention time turned out to be 860 s.

As for `COc1ccc(CNC(=O)CN2CCN(Cc3ccc(F)cc3)C2=O)c(OC)c1`, the RP-LC retention time was 793 s.

`Cc1nnc(-c2ccc3ccn(CC(=O)Nc4ccc(Cl)cc4F)c3c2)o1` returned an RP-LC retention time of 887 s.

`CN(C)c1ccc(/C=C/C(=O)c2cc(Cl)ccc2O)cc1` returned an RP-LC retention time of 1120 s.

Regarding `CCn1cc(CN2CCC(C(=O)NC(C)CCc3ccccc3)CC2)c2cc(Cl)ccc21` (configuration not stated), the RP-LC retention time was 672 s.

`CCOC(=O)c1noc2ncnc(NCc3ccc(C)cc3)c12` returned an RP-LC retention time of 936 s.

In turn, `CCOc1ccc(/C=C/C(=O)Nc2nc(-c3ccc(C)cc3)cs2)cc1OC` showed an RP-LC retention time of 1150 s.

Regarding `Cc1ccc(C2CC(=O)N(c3ccc(F)c(F)c3)C(=O)C2)cc1`, the RP-LC retention time is 997 s.

In turn, `O=C(NCCN1CCCCC1)c1cc2c(s1)CCN(C(=O)c1ccc(Cl)cc1)C2` showed an RP-LC retention time of 650 s.
